What was measured:
[1] = (§1) Ratio of EC50 for antiviral activity against Hepatitis B virus infected in human HepaRG cells assessed as fold change for inhibition of HBV DNA replication under normal condition to EC50 for inhibition of HBV DNA replication under CYP450 restriction pre-treated for 1 hr with CYP450 inhibitors ABT and SKF-525A on day 5 post-infection followed by removal of media and supplemented with fresh media containing diluted compound and further incubated for 3 days then followed by treatment for 1 hr with CYP450 inhibitors ABT and SKF-525A on day 8 post-infection followed by removal of media and supplemented with fresh media containing diluted compound and further incubated for 3 days in presence of 25 uM SKF-525A and measured on day 11 post-infection by chemiluminescence immunostaining assay; format: functional; details: time 6 day
Hepatitis B virus [2] = experiment: as §1, with “Antiviral” for “Ratio of EC50 for antiviral”, “as” for “as fold change for inhibition of HBV DNA replication under normal condition to EC50 for”; format: functional, organism-based
Hepatitis B virus [3] = experiment: Antiviral activity against Hepatitis B virus infected in human HepaRG cells assessed as inhibition of […] measured on day 11 post-infection by chemiluminescence immunostaining assay; format: functional, organism-based; details: 264 h
[4] = Half life in human primary hepatocytes at 1 uM measured up to 3 hrs by LC-MS/MS analysis; format: ADME, cell-based, Hepatocyte
[5] = Half life in human primary hepatocytes at 1 uM measured up to 3 hrs under CYP450 restriction in presence of CYP450 inhibitiors ABT and SKF-525A by LC-MS/MS analysis; format: ADME, cell-based, Hepatocyte
[6] = Cytotoxicity against human HepaRG cells assessed as effect on cell viability; format: cell-based

SMILES	Ratio EC50 [1]	EC50 (Hepatitis B virus [2])	EC50 (Hepatitis B virus [3])	half-life at 1 µM [4]	half-life at 1 µM [5]	CC50 [6]
O=C(Nc1ccc(F)cc1)c1ccc(CF)c(S(=O)(=O)N2CCOCC(O)C2)c1 (stereo not given)	11	200 nM	2100 nM	0.342 h	2.65 h	> 30000 nM
CCOC(=O)C1=C(CN2CCOCC2)NC(c2nccs2)=NC1c1ccc(F)cc1Br (stereo not given)	–	11 nM	590 nM	0.128 h	> 9.33 h	–
COC(=O)C1=C(C)NC(c2ncc(F)cc2F)=N[C@H]1c1ccc(F)cc1Cl	–	260 nM	220 nM	3.15 h	7.18 h	–
COc1ccccc1/C(Br)=C(\NC(=O)c1ccc([N+](=O)[O-])cc1)C(=O)N1CCCCC1	7.3	780 nM	5700 nM	0.0483 h	> 9.33 h	> 30000 nM
